Laboratory results reported in US20160024071A1, “INHIBITORS OF LRRK2 KINASE ACTIVITY” (ELAN PHARMACEUTICALS, LLC., priority 2013, published 2016).
pIC50: −log10 of the molar value.

What follows are compounds tested against T1, recombinant GST-LRRK2 (wild-type) (Homo sapiens, UniProt Q5S007) (assay: LRRK2 TR-FRET peptide assay (wild-type)). Details: 100 μM ATP, 100 nM biotin-LRRKtide, 10 nM kinase, 60 min room temperature.
T1 construct: GST (N); purchased Invitrogen
Type: biochemical
Experimental: Compounds as described herein (compounds of Formula I, e.g., compounds of the above Examples) are tested for their in vitro kinase activities using various LRRK2 (including LRRK2 G2019S mutant) assays. For example, assays were performed in a total volume of 20 μL using the same kinase reaction buffer (50 mM HEPES pH 7.5, 10 mM MgCl2, 1 mM EGTA, 2 mM DTT and 0.01% Tween-20) for wild-type or G2019S mutant LRRK2. Serially diluted compounds (1% DMSO as co-solvent) were pre-incubated with recombinant GST-LRRK2 (wild-type, or G2019S mutant, Invitrogen) for 15 minutes at room temperature in 384-well Corning black plates. Mixtures of ATP and biotin-LRRKtide substrate (biotin-RLGRDKYKTLRQIRQ) were added to the wells at a final concentration of 100 μM ATP and 100 nM substrate, with final kinase concentration of 10 nM. The kinase reactions were carried out at room temperature for 60 minutes, then the reaction was stopped with the addition of 10 μL/well of stop/detection buffer (25 mM HEPES pH 7.5, 66 mM EDTA, 0.8 M KF and 0.1% BSA) that contains streptavidin-XL665 (12.5 nM) and europium-conjugated phospho-specific antibody (2 nM). The plates were read 1 hour later and the time-resolved fluorescence (665 nm to 615 nm ratio) measured using an Envision reader. The inhibition of each well was calculated using the control and background readings for that plate. IC50 values were determined from dose-response curves using eight concentrations from the serial dilution of the test compounds.

T1 sequence (Q5S007 whole entry): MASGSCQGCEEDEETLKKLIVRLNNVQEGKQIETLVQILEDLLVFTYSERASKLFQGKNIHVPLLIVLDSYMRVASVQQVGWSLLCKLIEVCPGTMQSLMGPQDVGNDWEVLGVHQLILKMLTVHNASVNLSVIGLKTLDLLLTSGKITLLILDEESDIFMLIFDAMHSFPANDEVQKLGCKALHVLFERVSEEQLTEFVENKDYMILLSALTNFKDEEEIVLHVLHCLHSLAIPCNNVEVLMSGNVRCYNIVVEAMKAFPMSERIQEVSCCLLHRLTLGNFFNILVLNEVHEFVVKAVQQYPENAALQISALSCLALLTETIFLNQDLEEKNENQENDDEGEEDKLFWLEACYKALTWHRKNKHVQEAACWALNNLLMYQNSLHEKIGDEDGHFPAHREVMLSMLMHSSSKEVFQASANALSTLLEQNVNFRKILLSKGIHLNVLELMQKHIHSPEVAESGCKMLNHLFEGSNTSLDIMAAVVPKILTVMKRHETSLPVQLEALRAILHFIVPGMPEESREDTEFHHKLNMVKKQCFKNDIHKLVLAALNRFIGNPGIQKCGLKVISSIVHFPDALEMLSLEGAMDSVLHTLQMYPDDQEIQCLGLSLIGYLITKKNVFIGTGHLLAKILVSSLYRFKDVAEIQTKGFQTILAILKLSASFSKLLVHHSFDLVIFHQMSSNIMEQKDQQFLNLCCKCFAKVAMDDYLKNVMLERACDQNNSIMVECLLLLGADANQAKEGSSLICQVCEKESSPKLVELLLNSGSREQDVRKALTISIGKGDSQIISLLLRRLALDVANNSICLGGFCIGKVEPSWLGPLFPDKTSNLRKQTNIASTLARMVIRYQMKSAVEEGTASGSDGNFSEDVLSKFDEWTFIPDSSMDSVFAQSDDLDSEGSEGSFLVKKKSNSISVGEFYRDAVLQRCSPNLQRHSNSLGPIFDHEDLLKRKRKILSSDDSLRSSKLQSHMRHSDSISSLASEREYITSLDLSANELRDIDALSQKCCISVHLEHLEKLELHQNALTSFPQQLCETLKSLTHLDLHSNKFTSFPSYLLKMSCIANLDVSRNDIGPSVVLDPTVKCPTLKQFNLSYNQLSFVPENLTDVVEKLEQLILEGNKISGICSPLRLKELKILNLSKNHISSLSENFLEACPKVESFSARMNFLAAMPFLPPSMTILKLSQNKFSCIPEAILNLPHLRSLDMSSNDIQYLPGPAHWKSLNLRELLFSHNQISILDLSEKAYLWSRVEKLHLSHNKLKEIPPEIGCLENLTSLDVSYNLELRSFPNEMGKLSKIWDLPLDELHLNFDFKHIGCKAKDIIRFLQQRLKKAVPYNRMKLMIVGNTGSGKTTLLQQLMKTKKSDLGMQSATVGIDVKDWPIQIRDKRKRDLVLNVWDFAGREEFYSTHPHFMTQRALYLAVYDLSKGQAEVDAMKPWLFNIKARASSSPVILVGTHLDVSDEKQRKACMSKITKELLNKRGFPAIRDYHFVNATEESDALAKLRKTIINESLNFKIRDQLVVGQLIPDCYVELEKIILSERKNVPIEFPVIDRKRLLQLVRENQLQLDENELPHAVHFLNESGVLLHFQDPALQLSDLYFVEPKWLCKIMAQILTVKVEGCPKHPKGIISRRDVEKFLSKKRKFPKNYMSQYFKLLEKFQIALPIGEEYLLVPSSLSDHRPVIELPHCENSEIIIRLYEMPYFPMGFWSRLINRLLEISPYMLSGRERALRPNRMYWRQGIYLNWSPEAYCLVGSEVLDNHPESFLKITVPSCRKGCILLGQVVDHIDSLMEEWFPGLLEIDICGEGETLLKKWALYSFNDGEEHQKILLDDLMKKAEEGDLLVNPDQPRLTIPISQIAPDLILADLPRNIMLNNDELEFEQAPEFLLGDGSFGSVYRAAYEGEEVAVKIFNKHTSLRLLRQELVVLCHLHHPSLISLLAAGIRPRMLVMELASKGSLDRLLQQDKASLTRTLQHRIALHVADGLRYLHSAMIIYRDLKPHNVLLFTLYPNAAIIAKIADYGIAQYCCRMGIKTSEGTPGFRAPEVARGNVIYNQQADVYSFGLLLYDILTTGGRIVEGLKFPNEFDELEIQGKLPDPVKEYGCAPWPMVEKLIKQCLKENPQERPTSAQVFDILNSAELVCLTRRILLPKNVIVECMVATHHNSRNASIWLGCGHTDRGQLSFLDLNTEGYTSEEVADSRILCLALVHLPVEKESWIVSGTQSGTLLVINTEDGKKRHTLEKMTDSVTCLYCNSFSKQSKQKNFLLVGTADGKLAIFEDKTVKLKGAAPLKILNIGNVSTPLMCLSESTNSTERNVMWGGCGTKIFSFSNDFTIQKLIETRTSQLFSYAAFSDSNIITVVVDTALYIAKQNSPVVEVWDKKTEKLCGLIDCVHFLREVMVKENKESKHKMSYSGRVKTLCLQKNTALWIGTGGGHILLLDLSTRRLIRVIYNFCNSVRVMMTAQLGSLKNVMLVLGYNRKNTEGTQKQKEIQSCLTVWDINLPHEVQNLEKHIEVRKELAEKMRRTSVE

pIC50 | SMILES
9.05 | O=C(NN=C1SCC(=O)N1c1ccccc1)c1ccc(Cl)s1 [Compound 1-6, 5-chloro-N′-(4-oxo-3-phenylthiazolidin-2-ylidene)thiophene-2-carbohydrazide]
7.96 | CC1SC(=NNC(=O)c2ccc(Cl)s2)N(c2ccccc2)C1=O (stereo not drawn) [Compound 1-7, 5-chloro-N′-(5-methyl-4-oxo-3-phenylthiazolidin-2-ylidene)thiophene-2-carbohydrazide]
8.96 | O=C(NN=C1SCC(=O)N1c1cccc(F)c1)c1ccc(Cl)s1 [Compound 1-8, 5-chloro-N′-(3-(3-fluorophenyl)-4-oxothiazolidin-2-ylidene)thiophene-2-carbohydrazide]
5.93 | COc1ccccc1N1C(=O)CSC1=NNC(=O)c1ccc(Cl)s1 [Compound 1-9, 5-chloro-N′-(3-(2-methoxyphenyl)-4-oxothiazolidin-2-ylidene)thiophene-2-carbohydrazide]
9.30 | O=C(NN=C1SCC(=O)N1c1ccccc1F)c1ccc(Cl)s1 [Compound 1-10, 5-chloro-N′-(3-(2-fluorophenyl)-4-oxothiazolidin-2-ylidene)thiophene-2-carbohydrazide]
9.05 | O=C(NN=C1SCC(=O)N1c1ccc(F)cc1)c1ccc(Cl)s1 [Compound 1-11, 5-chloro-N′-(3-(4-fluorophenyl)-4-oxothiazolidin-2-ylidene)thiophene-2-carbohydrazide]
9.30 | O=C(NN=C1SCC(=O)N1c1ccc(F)cc1F)c1ccc(Cl)s1 [Compound 1-12, 5-chloro-N′-(3-(2,4-difluorophenyl)-4-oxothiazolidin-2-ylidene)thiophene-2-carbohydrazide]
6.68 | CC(C)C1SC(=NNC(=O)c2ccc(Cl)s2)N(c2ccccc2)C1=O (stereo not drawn) [Compound 1-13, 5-chloro-N′-(5-isopropyl-4-oxo-3-phenylthiazolidin-2-ylidene)thiophene-2-carbohydrazide]
6.48 | CC1(C)SC(=NNC(=O)c2ccc(Cl)s2)N(c2ccccc2)C1=O [Compound 1-14, 5-chloro-N′-(5,5-dimethyl-4-oxo-3-phenylthiazolidin-2-ylidene)thiophene-2-carbohydrazide]
7.89 | O=C(NN=C1SCC(=O)N1Cc1ccccc1)c1ccc(Cl)s1 [Compound 1-15, N′-(3-benzyl-4-oxothiazolidin-2-ylidene)-5-chlorothiophene-2-carbohydrazide]
6.95 | O=C(NN=C1SCC(=O)N1c1cccc(C(F)(F)F)c1)c1ccc(Cl)s1 [Compound 1-16, 5-chloro-N′-(4-oxo-3-(3-(trifluoromethyl)phenyl)thiazolidin-2-ylidene)thiophene-2-carbohydrazide]
7.29 | O=C(NN=C1SCCN1c1ccccc1)c1ccc(Cl)s1 [Compound 2-19, 5-chloro-N′-(3-phenylthiazolidin-2-ylidene)thiophene-2-carbohydrazide]
